Reference: US8597660B2, “Therapeutic approach to neurodegenerative disorders using a TFP5-peptide” (The United States of America, as represented by the …, priority 2010, dated 2013)
“Also recorded” adds a separate entry of the source. Peptide text beside a SMILES is read from it. * marks the point of attachment. FITC = O=C1OC2(c3ccc(O)cc3Oc3cc(O)ccc32)c2ccc(NC(=S)*)cc21

Key:
[1] = Toxicity of ip TFP5 in mice; type: in vivo, mouse; conditions: ip TFP5 (0.2 mM; or 10 weeks in three AD mice)
cleaved caspase-3 = assay: Cleaved caspase-3 Western blot in Aβ-treated cortical neurons; type: cell-based, rat; conditions: Aβ 6 h; P5 infection or roscovitine
Description: (§1) Western blot analysis was performed as previously described (Zheng et al., Eur J Biochem 269(18), 4427-4434, 2002). In brief, an equal amount of total protein (20 μg/lane) was resolved on a 4-20% SDS polyacrylamide gel and blotted onto a polyvinylidene difluoride membrane. This membrane was incubated in blocking buffer containing 20 mM Tris-HCl (pH 7.4), 150 mM NaCl, and 0.1% (vol/vol) Tween 20 (TTBS) plus 5% dry milk (w/v) for 1 hour at room temperature followed by incubation overnight at 4° C. in primary antibodies (see antibodies). The membranes were then washed four times in TTBS (5 minutes/each) followed by incubation in secondary antibody (goat-antimouse or goat anti-rabbit IgG (H+L)-horseradish peroxidase (HRP) conjugate at a dilution of 1:3000) for 1 hour at room temperature. Western blots were analyzed using the Amersham Enhanced Chemiluminescence (ECL) kit following the manufacturer's instructions (GE Healthcare, Piscataway, N.J.).
To determine whether P5 inhibited neuronal apoptosis induced by Aβ, primary cortical neurons (5 days in culture (DIC)) were transfected with P5-GFP using Lipofectamine 2000. After 24 hours, cells were exposed to Aβ for 6 hours. The neurons were fixed and subjected to TUNEL staining, while P5 was visualized by (green fluorescent protein) GFP. […] The data are quantified in FIG. 5B. […] The data are quantified in FIG. 5D.

tau phosphorylation = assay: Aβ-induced tau phosphorylation in cortical neurons, Western blot; type: cell-based, rat; conditions: Aβ 6 h; P5 infection or roscovitine
Description: Primary cultures of rat cortical neurons were prepared from E-18 rat fetuses as described previously (Zheng et al., J Biol Chem 278(26), 24026-24032, 2003). After 7 days, cells were infected independently or co-infected with empty vector (EV), the constructs of P5, P25, P35, wild-type Cdk5 and dominant negative Cdk5 (changing Lys33 to Thr33) using the Adenoviral vector (pAdTrack-CMV) packaging system as described above. […] The cells were fixed for immunocytochemistry analyses (ICC) or lysed with lysis buffer for immunoprecipitation and Western blot analyses. Cortical neuron cultures were prepared and plated on the cover slips as described. Human embryo kidney cells (HEK293) were grown as described previously (Zheng et al., Eur J Biochem 269(18), 4427-4434, 2002). In these studies HEK293 cells on day 1, or neurons on day 5, were transfected with or without Myc-P5-GFP using Lipofectamine 2000 following the manufacturer's instructions.
as §1
Amyloid plaques and neurofibrillary tangles, pathological hallmarks of several neurodegenerative disorders, are linked to deregulated Cdk5 and neuronal death. According to one model, β amyloid, being toxic, may evoke abnormal calcium influx into neurons which activates calpains. […] Hyperactivation of Cdk5, leads to the aberrant phosphorylation of tau and neurofilaments in a number of neurodegenerative diseases including AD and ALS. For example, primary cortical neurons, when treated with Aβ1-42 are induced to form Cdk5/P25 complexes, hyperactive Cdk5 activity, hyperphosphorylation of tau, and neuronal apoptosis. To determine whether P5 will inhibit endogenous tau phosphorylation induced by Aβ treatment in cortical neurons, 7 day old cortical neurons, infected with empty vector (EV) or with P5 were treated with Aβ for 6 hours, lysed and prepared for Cdk5 immunoprecipitation and kinase assay. Aβ treatment causes an approximate 3-fold increase in endogenous Cdk5 activity as visualized by histone H1 phosphorylation (FIG. 4A, panel 5, lane 2; FIG. 4B).
; FIG. 4D). […] Tau antibodies p-Ser404, PHF antibody AT180 (recognizes p-Thr231) and p-Ser422 antibodies were used to observe whether P5 affects other tau phosphorylation residues (FIGS. 4E, 4F). […]. Tau 5 recognizes total tau, nonphosphorylated as well as phosphorylated.

Cdk5/P25 [2] = target: T1, Cdk5/P25 (Homo sapiens, UniProt Q00535); conditions: earlier studies, cited from earlier work
T1 sequence (Q00535 whole entry, species assumed): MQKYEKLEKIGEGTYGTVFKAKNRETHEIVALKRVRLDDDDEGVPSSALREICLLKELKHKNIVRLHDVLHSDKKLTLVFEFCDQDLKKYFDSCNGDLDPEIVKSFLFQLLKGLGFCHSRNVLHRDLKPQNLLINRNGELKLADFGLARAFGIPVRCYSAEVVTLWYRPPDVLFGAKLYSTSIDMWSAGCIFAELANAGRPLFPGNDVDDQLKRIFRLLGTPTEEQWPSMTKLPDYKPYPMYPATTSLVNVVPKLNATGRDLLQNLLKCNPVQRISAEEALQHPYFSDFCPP

Cdk5/P25 [3] = target: T1, Cdk5/P25; conditions: earlier studies; cited from earlier work
Cdk5/P25 [4] = target: T1, Cdk5/P25; assay: In vitro kinase (pad) assay of active Cdk5/P25 with histone H1 as substrate; type: biochemical; conditions: in vitro kinase assay, histone H1, FIG. 1
Description: Kinase assays were performed as previously described (Veeranna, et al., J Neurosci 18(11), 4008-4021, 1998). Briefly, 7 days in culture (7 DIC) primary rat cortical neurons were infected with P25, P35, Cdk5 wild-type, dominant negative-Cdk5 and P5 using the lentiviral gene delivery as described earlier. Cdk5 was immunoprecipitated using the polyclonal C8 antibody overnight at 4° C. and immunoglobulin isolated using Protein A sepharose beads for 2 hours at 4° C. Immunoprecipitates were washed three times with lysis buffer and then once with 1× kinase buffer containing 20 mM Tris-Cl pH 7.4, 1 mM EDTA, 1 mM EGTA, 10 mM MgCl2, 10 mM sodium fluoride and 1 mM sodium orthovanadate. Endogenous Cdks were immunoprecipitated from HEK 293 cells using their respective antibodies and treated as above. Kinase assays were performed in the same buffer containing 1 mM DTT, 0.1 mM ATP and 0.185 MBq [γ-32P] ATP with 20 μg of histone H1 as the substrate. Phosphorylation was performed in a final volume of […] incubated at 30° C. for 60 minutes, stopped by the addition of 10% SDS sample buffer and heating at 95° C. for 5 minutes. Samples were separated by SDS-PAGE, gels were stained with Coomassie, destained, dried and exposed to autoradiography. In pad assays, 25 μl aliquots of the incubation mixture were placed on a Whatman p80 paper square, washed and dried and placed in a scintillation vial for counting.
These are GST-P1 (E211-A277 of SEQ ID NO: 16), 67 amino acid residues; GST-P2 (M237-A277), 41 residues; GST-P3 (E221-L267 of SEQ ID NO: 16), 47 residues; GST-P4 (E221-L249 of SEQ ID NO: 16), 29 residues and GST-P5 (K254-A277 of SEQ ID NO: 16) 24 residues. Each was incubated with active Cdk5/P25 in a kinase assay in vitro. […] FIG. 10 provides a comparison of P5 and CIP, relative to P35.
In a dose-dependent kinase assay the effective inhibitory concentration of P5 for both the Cdk5/P25 and Cdk5/P35 complexes was evaluated. His-P5 peptide was added at different concentrations to the in vitro assay containing 100 μM [γ32-P] ATP and histone H1. Inhibition increased progressively with increasing P5 concentration in both complexes (Compare FIGS. 2A, 2B with 2C, 2D).
P5, a 24 amino acid peptide derived from Cdk5 regulator p35, was modified by conjugating it with TAT PTD at the C-terminal end and with FITC (using a GGG linker) at the N-terminus to produce a fluorescent (FITC-labeled) TFP5 (SEQ ID NO: 2) peptide. In a dose-dependent kinase assay the effective inhibitory concentration of TFP5 for both the Cdk5/P25 and Cdk5/P35 complexes was evaluated. His-P5 peptide was added at different concentrations to the in vitro assay containing 100 μM [γ32-P] ATP and histone H1. […] Data represent means of four independent experiments with error bars representing SEM (*p≦0.05, **p≦0.001).

**Q.** For `CC[C@H](C)[C@H](NC(=O)[C@H](CCC(N)=O)NC(=O)[C@H](CC(C)C)NC(=O)[C@H](CCSC)NC(=O)[C@H](CCCCN)NC(=O)[C@H](CO)NC(=O)[C@H](CO)NC(=O)[C@H](CCSC)NC(=O)[C@H](CC(C)C)NC(=O)[C@H](CC(N)=O)NC(=O)[C@@H](NC(=O)[C@@H](NC(=O)[C@H](CO)NC(=O)[C@H](CC(C)C)NC(=O)[C@H](CS)NC(=O)[C@H](CCCNC(=N)N)NC(=O)[C@H](CC(=O)O)NC(=O)[C@H](Cc1c[nH]c2ccccc12)NC(=O)[C@H](Cc1ccccc1)NC(=O)[C@H](C)NC(=O)[C@H](CCC(=O)O)NC(=O)[C@H](CCCCN)NC(=O)CNC(=O)CNC(=O)CNC(=S)Nc1ccc2c(c1)C(=O)OC21c2ccc(O)cc2Oc2cc(O)ccc21)C(C)C)[C@@H](C)CC)C(=O)N[C@@H](CC(N)=O)C(=O)N[C@@H](C)C(=O)N[C@@H](Cc1ccc(O)cc1)C(=O)N[C@@H](C)C(=O)N[C@@H](CCCNC(=N)N)C(=O)N[C@@H](C)C(=O)N[C@@H](C)C(=O)N[C@@H](CCCNC(=N)N)C(=O)N[C@@H](CCCNC(=N)N)C(=O)N[C@@H](C)C(=O)N[C@@H](C)C(=O)N[C@@H](CCCNC(=N)N)C(=O)N[C@@H](CCCNC(=N)N)C(=O)O` [TFP5] ({FITC}-GGGKEAFWDRCLSVINLMSSKMLQINAYARAARRAARR-OH), which Toxicity in vivo [1] is on record?
**A.** without any toxicity; also recorded: without resulting in cell death; also recorded: no toxic effects were observed

**Q.** For `CC[C@H](CO)Nc1nc(NCc2ccccc2)c2ncn(C(C)C)c2n1` [roscovitine, reference compound], which “Cleaved caspase-3 expression” value (cleaved caspase-3) is on record?
**A.** reduced levels of cleaved caspase-3 comparable to that seen with P5 infection

**Q.** What about the “Aβ-induced tau phosphorylation at Ser422” value (tau phosphorylation) of the same compound?
**A.** significantly inhibits tau phosphorylation at Ser422 site

**Q.** What about the “Aβ-induced tau phosphorylation detected by AT8 and p-Ser199/202 antibodies” value (tau phosphorylation) of the same compound?
**A.** baseline levels of tau phosphorylation; also recorded: significantly inhibited

**Q.** For “CIP: 125-amino acid truncated peptide from P35 (residues 154-279 of SEQ ID NO: 16), inhibitor of Cdk5/P25”, which Tau hyperphosphorylation (Cdk5/P25 [2]) is on record?
**A.** reduces tau hyperphosphorylation

**Q.** And the “Apoptosis induced by Cdk5/P25” value (Cdk5/P25 [2]; transfected HEK cells and neurons)?
**A.** protects transfected HEK cells and neurons from apoptosis

**Q.** And the “Inhibition of Cdk5/P25 activity by CIP” value (Cdk5/P25 [3])?
**A.** highly effective and specific inhibitor of Cdk5/P25 activity

**Q.** With “P3: 47 residue peptide derived from CIP, E221-L267 of SEQ ID NO: 16 (P35)” as the compound, how does the “Inhibition of Cdk5/P25 activity, comparison among peptides and CIP” value (Cdk5/P25 [4]) read?
**A.** more effective inhibitors of Cdk5/P25 activity than CIP
